Results from patent publication US8455469B2, “Use of norgestimate as a selective inhibitor of TRPC3, TRPC6 and TRPC7 ion channels” (Sanofi, priority 2007, dated 2013).
“Also recorded” adds a separate entry of the source.

Columns and labels:
[1] = molecular target: T1, TRPC4 (Homo sapiens, UniProt Q9UBN4); test: FLIPR Ca2+ influx measurement, trypsin-stimulated TRPC4 HEK293 cells; type: cell-based; settings: 200 nM trypsin
T1 construct: expressed in transfected cells; host or cells: HEK293 (inducible expression)
T1 sequence (Q9UBN4 1-977): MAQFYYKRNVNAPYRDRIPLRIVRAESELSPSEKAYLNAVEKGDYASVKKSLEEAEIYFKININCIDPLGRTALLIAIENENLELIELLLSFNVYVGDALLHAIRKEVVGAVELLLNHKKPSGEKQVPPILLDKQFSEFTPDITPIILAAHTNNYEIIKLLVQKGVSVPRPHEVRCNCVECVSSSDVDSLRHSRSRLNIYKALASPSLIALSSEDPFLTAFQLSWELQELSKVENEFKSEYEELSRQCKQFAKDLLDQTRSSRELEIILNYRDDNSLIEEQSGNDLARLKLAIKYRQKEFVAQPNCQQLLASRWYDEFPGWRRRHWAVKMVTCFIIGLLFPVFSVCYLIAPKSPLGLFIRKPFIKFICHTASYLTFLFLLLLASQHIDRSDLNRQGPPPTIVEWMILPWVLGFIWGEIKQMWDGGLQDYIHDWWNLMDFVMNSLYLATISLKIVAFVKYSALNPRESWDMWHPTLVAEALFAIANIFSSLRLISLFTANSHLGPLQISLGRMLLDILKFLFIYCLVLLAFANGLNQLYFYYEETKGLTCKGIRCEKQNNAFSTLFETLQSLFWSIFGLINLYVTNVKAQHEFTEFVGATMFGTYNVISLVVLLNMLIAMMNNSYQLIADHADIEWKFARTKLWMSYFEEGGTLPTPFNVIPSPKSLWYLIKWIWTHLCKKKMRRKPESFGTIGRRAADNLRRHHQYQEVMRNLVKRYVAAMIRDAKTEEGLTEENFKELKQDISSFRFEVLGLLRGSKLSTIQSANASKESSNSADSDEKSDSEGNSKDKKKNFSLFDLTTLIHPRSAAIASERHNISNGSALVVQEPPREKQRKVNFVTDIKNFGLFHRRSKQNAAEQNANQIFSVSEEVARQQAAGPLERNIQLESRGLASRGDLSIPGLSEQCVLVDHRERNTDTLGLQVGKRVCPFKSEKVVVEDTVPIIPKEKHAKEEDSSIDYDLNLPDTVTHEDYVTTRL
Description: In general, cells are provided which express a TRPC channel. Such cells can be produced using genetic methods known to a person skilled in the art. After having induced the expression of the TRPC channel, cells are usually plated into e.g. microtiter plates and grown. Usually the cells grow at the bottom of multiwell plates and are fixed. Thereafter, the cells are generally washed and loaded with a dye in a suitable loading buffer, preferably with a fluorescent dye such as fluo4am. After having removed the loading buffer, the cells are incubated with the test compound or modulator, in particular with a biochemical or chemical test compound as described above, e.g. in the form of a chemical compound library. Ca^2+ measurements can be carried out using e.g. a Fluorescence Imaging Plate Reader (FLIPR). To stimulate Ca^2+ influx through the TRPC channel a channel activator such as OAG should generally be applied.
When these experiments were performed, no direct physiological stimuli of TRPC4 and TRPC5 were known. Therefore, both channels had to be stimulated indirectly, e.g. by application of trypsin, a protease-activated receptor (PAR) stimulating protease. […] Kinetics and quantity of calcium store release in cells treated with 30 μM norgestimate were not changed compared to untreated cells. […]

[2] = test system: protease-activated receptor (PAR); test: Calcium release from ER in non-induced TRPC5 HEK293 FITR cells (PAR antagonism control); type: cell-based; settings: 30 μM norgestimate, 10 min preincubation
Experimental: When these experiments were performed, no direct physiological stimuli of TRPC4 and TRPC5 were known. Therefore, both channels had to be stimulated indirectly, e.g. by application of trypsin, a protease-activated receptor (PAR) stimulating protease. […] PAR are G protein-coupled and their activation leads to calcium store depletion from endoplasmic reticulum (ER). This so called phosphatidylinositol (PI) response is independent of the channel's presence but consequently leads to activation of store-operated channels like TRPC4 and TRPC5. Basic prerequisite to measure the effect of norgestimate on both channels under these conditions is to exclude PAR antagonism of this potential channel inhibitor. […] Kinetics and quantity of calcium store release in cells treated with 30 μM norgestimate were not changed compared to untreated cells. Therefore, norgestimate is not a PAR antagonist and TRPC4 and TRPC5 activation via PAR stimulation is suitable to measure the channels inhibition by norgestimate.

SMILES: C#C[C@]1(OC(C)=O)CC[C@H]2[C@@H]3CCC4=C/C(=N/O)CC[C@@H]4[C@H]3CC[C@@]21CC [norgestimate, D-17β-acetoxy-B-ethyl-17α ethinyl-gon-4-en-3-one oxime]
- inhibitory effect on TRPC4-mediated Ca2+ influx ([1]; 30 μM norgestimate): only small inhibitory effects; also recorded: slightly reduced
- IC50 ([1]; FLIPR, n=2): > 30 µM
- kinetics and quantity of calcium store release compared to untreated cells [2]: not changed
